Measured values reported in paper PMC7153038, “Pharmacologic inhibition of RGD‐binding integrins ameliorates fibrosis and improves function following kidney injury” (Physiological Reports, 2020).
Several values for one entry are separate records, joined by “and”; a condition that tells them apart may be missing. Equal values may be shown once.

Legend:
[1] = observation of deleterious effects in treated animals; format: in vivo, mouse; conditions: 100 mg/kg/day s.c. minipump, 28 days
Protocol: (§1) Alzet osmotic minipumps (Cupertino, CA) were implanted subcutaneously in 8‐ to 10‐week‐old wild‐type male ICR outbred mice (Envigo) one day prior to induction of kidney injury to deliver vehicle (DMSO/H2O 1:1) or CWHM‐12 at a dose of 100 mg/kg per day. A single 5 mg/kg dose of aristolochic acid I sodium salt (Sigma‐Aldrich, A9451) in PBS was administered intraperitoneally to induce kidney injury, and mice were monitored daily for 27 days thereafter. Control (uninjured) mice were injected with an equal volume of PBS. Blood was obtained by maxillary vein puncture on days 0, 5 (peak injury), and 28 (study endpoint). For testing CWHM‐680, oral gavage (100 mg/kg per day) was started one day prior to injection of aristolochic acid I sodium salt and continued once daily until the study endpoint. Blood was obtained at days 0, 7, and 23 (study endpoint). […] Serum creatinine was measured by liquid chromatography–mass spectrometry (LC–MS/MS) at the University of Alabama O’Brien Center Bioanalytical Core. CWHM‐12 and CWHM‐680 concentrations were measured in plasma samples by liquid chromatography–tandem mass spectrometry (LC/MS/MS) using compound spiked into control plasma as a standard. All experiments were performed under protocols approved by the Institutional Animal Care and Use Committee at St. Louis University.

[2] = system: kidney gene expression; assay: aristolochic acid kidney injury model, kidney RNA sequencing; format: in vivo, mouse; conditions: for Fold change of Pdgfra by RNA‐seq, AA + CWHM-12: vehicle 5.02; for Fold change of Pdgfrb by RNA‐seq, AA + CWHM-12: vehicle 6.79; for Fold change of Foxd1 by RNA‐seq, AA + CWHM-12: vehicle 9.55; for Fold change of Gli1 by RNA‐seq, AA + CWHM-12: vehicle 20.44; for Fold change of Crlf1 by RNA‐seq, AA + CWHM-12: vehicle 37.57
Protocol: as §1
Total RNA was isolated from four kidneys from each of the three study groups using the RNeasy Plus Mini Kit (Qiagen). The groups were as follows: (a) aristolochic acid plus vehicle, (b) aristolochic acid plus CWHM‐12, and (c) PBS plus vehicle. After ribosomal depletion, we constructed barcoded sequencing libraries using the Ion Total RNA‐seq v2 kits (Life Technologies) according to the manufacturer's instructions. Sequencing was performed on an Ion Torrent Proton with mean read lengths of 85–110 nucleotides, and reads were aligned to the mouse mm10 genome using the TMAP aligner map4 algorithm. Soft clipping at both 5′ and 3′ ends of the reads was permitted during alignment to accommodate spliced reads, with a minimum seed length of 20 nucleotides. Genome‐wide strand‐specific nucleotide coverages were calculated from the aligned bam files for each sample using the “genomecoveragebed” program in BEDTools (Quinlan & Hall, 2010), and the nucleotide coverage for all nonredundant exons for each gene was summed using custom R scripts (http://www.Rproject.org). Normalization factors were calculated by averaging the total exon coverage for all replicates and dividing this average by the total exon coverage for each individual sample. The total coverage for each gene in each replicate was then multiplied by these factors after adding an offset of 1 to each gene to preclude division by 0 in subsequent calculations. The averages and p values of the coverage values for all genes in the individual groups were calculated using Microsoft Excel, using a two‐tailed t‐test. The expression values for each gene are the normalized strand‐specific total nucleotide coverage for each gene. The complete data set can be accessed at https://figshare.com/s/54c7f78b4523873e9b00.

[3] = biological target: T1, integrin α5β1 (Homo sapiens, UniProt P05556+P08648); assay: integrin α5β1-mediated attachment of K562 cells to human plasma fibronectin; format: cell-based; conditions: mean and SD, at least 3 independent assays, read-out: IC50, inhibition of α5β1-mediated cell attachment
T1 construct: K562 cells, which naturally express this integrin; endogenous in cells; host or cells: K562
T1 sequence (P08648 42-894 limits assumed): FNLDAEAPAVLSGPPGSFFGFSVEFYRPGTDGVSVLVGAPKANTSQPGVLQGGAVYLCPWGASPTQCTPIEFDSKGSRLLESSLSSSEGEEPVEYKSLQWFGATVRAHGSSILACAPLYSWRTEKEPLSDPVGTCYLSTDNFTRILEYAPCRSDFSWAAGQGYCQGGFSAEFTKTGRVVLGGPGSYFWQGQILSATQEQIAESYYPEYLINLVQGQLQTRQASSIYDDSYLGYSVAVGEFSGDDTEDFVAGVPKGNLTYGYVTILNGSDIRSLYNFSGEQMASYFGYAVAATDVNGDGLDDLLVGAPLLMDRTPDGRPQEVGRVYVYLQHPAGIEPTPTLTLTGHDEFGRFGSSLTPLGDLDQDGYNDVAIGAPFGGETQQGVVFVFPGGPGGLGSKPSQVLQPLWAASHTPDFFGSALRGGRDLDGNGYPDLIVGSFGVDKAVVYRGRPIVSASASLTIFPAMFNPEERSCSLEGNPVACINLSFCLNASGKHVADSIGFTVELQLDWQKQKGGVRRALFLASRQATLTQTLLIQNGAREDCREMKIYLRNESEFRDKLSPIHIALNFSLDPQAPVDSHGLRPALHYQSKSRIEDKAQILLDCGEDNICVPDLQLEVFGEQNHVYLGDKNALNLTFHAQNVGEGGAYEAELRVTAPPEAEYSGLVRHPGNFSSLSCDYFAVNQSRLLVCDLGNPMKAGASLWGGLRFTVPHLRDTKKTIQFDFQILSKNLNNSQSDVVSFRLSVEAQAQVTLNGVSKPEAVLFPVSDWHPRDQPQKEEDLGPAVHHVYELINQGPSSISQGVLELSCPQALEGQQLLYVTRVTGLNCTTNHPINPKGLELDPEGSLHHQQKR
T1 sequence (P08648 895-1049 partner limits assumed): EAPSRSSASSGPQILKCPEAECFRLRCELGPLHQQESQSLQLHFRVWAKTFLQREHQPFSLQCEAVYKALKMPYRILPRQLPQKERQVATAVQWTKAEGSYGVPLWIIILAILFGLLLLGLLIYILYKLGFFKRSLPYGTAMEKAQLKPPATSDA
T1 sequence (P05556 21-798): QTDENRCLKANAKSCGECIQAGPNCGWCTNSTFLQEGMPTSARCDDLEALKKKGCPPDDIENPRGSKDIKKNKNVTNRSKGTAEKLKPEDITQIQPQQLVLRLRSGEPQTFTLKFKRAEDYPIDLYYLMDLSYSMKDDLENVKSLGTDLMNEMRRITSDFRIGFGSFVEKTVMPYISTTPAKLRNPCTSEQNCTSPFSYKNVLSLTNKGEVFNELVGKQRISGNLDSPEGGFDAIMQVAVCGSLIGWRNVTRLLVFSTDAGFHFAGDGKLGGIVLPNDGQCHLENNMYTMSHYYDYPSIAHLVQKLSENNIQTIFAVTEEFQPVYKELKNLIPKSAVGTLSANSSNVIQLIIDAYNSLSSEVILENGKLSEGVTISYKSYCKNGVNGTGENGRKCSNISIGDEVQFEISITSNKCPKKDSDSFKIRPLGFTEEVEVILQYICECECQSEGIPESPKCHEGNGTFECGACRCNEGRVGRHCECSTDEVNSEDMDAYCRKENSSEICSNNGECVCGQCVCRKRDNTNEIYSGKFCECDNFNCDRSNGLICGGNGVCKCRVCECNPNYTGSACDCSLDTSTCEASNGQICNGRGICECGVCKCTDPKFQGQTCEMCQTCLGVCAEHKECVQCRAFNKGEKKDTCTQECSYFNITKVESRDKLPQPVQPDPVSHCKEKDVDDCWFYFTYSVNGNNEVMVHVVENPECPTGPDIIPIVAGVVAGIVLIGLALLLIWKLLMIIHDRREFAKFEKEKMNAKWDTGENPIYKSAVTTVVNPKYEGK

[4] = AA-injured, 100 mg/kg/day s.c. minipump
[5] = AA-injured, 100 mg/kg/day s.c. minipump, relative to uninjured, 100 mg/kg/day
[6] = AA-injured, 100 mg/kg/day s.c. minipump, relative to uninjured, listed as CWHM−12, 100 mg/kg/day

Compound: CC(C)(C)c1cc(Br)cc([C@H](CC(=O)O)NC(=O)CNC(=O)c2cc(O)cc(NC3=NCC(O)CN3)c2)c1 (stereo partly drawn) [CWHM‐12]
- obvious deleterious effects in treated animals [1]: did not observe obvious deleterious effects
- Acta2 RNA‐seq ratio AA + CWHM-12/AA + Vehicle [2, 4]: 0.8473
- Aldh1a2 RNA‐seq ratio AA + CWHM-12/AA + Vehicle [2, 4]: 0.6492
- Col1a1 RNA‐seq ratio AA + CWHM-12/AA + Vehicle [2, 4]: 0.2480
- Col3a1 RNA‐seq ratio AA + CWHM-12/AA + Vehicle [2, 4]: 0.3560
- Col5a3 RNA‐seq ratio AA + CWHM-12/AA + Vehicle [2, 4]: 0.5587
- Crlf1 RNA‐seq ratio AA + CWHM-12/AA + Vehicle [2, 4]: 0.1032
- Ctgf RNA‐seq ratio AA + CWHM-12/AA + Vehicle [2, 4]: 0.5510
- Egf expression increase in injured animals, RNA-seq [2, 4]: twofold
- Fbln2 RNA‐seq ratio AA + CWHM-12/AA + Vehicle [2, 4]: 0.5262
- Fn1 RNA‐seq ratio AA + CWHM-12/AA + Vehicle [2, 4]: 0.5243
- Foxd1 RNA‐seq ratio AA + CWHM-12/AA + Vehicle [2, 4]: 0.3427
- Gda RNA‐seq ratio AA + CWHM-12/AA + Vehicle [2, 4]: 0.6302
- Gli1 RNA‐seq ratio AA + CWHM-12/AA + Vehicle [2, 4]: 0.4486
- Gli2 RNA‐seq ratio AA + CWHM-12/AA + Vehicle [2, 4]: 0.8986
- Gli3 RNA‐seq ratio AA + CWHM-12/AA + Vehicle [2, 4]: 0.6039
- Mmp2 RNA‐seq ratio AA + CWHM-12/AA + Vehicle [2, 4]: 0.4013
- NGAL (Lcn2) expression decrease vs vehicle-treated injured mice, RNA-seq [2, 4]: 50%
- Nes RNA‐seq ratio AA + CWHM-12/AA + Vehicle [2, 4]: 0.4461
- Pdgfra RNA‐seq ratio AA + CWHM-12/AA + Vehicle [2, 4]: 0.7298
- Pdgfrb RNA‐seq ratio AA + CWHM-12/AA + Vehicle [2, 4]: 0.4393
- Rgs16 RNA‐seq ratio AA + CWHM-12/AA + Vehicle [2, 4]: 0.4692
- Shroom3 RNA‐seq ratio AA + CWHM-12/AA + Vehicle [2, 4]: 0.5633
- Tgfb1 RNA‐seq ratio AA + CWHM-12/AA + Vehicle [2, 4]: 0.5715
- Tgfb2 RNA‐seq ratio AA + CWHM-12/AA + Vehicle [2, 4]: 0.8306
- Tgfb3 RNA‐seq ratio AA + CWHM-12/AA + Vehicle [2, 4]: 0.5937
- Thbs2 RNA‐seq ratio AA + CWHM-12/AA + Vehicle [2, 4]: 0.5603
- Thbs4 RNA‐seq ratio AA + CWHM-12/AA + Vehicle [2, 4]: 0.4558
- reduction of Myc expression, RNA-seq [2, 4]: 35%
- reduction of upregulation of eight keratin genes (Krt 7, 8, 15, 18–20, 23, 80), RNA-seq [2, 4]: 15%–50%
- decrease of Sox9 induction, RNA-seq ([2]; AA-injured, 100 mg/kg/day s.c. minipump, induction 45-fold with vehicle): 57%
- Fold change of Gli2 by RNA‐seq, AA + CWHM-12 ([2]; AA-injured, 100 mg/kg/day s.c. minipump, relative to uninjured, vehicle 0.87): 0.78 fold
- Fold change of Acta2 by RNA‐seq, AA + CWHM-12 ([2]; AA-injured, 100 mg/kg/day s.c. minipump, relative to uninjured, vehicle 3.7): 3.2 fold
- Fold change of Shroom3 by RNA‐seq, AA + CWHM-12 ([2]; AA-injured, 100 mg/kg/day s.c. minipump, relative to uninjured, vehicle 3.9): 2.2 fold
- Fold change of Tgfb2 by RNA‐seq, AA + CWHM-12 ([2]; AA-injured, 100 mg/kg/day s.c. minipump, relative to uninjured, vehicle 4.9): 4.1 fold
- Fold change of Pdgfra by RNA‐seq, AA + CWHM-12 [2, 5]: 3.7 fold
- Fold change of Pdgfra by RNA‐seq, AA + CWHM-12 [2, 6]: 3.66 fold
- Fold change of Fbln2 by RNA‐seq, AA + CWHM-12 ([2]; AA-injured, 100 mg/kg/day s.c. minipump, relative to uninjured, vehicle 5.78): 3.04 fold
- Fold change of Col5a3 by RNA‐seq, AA + CWHM-12 ([2]; AA-injured, 100 mg/kg/day s.c. minipump, relative to uninjured, vehicle 5.81): 3.25 fold
- Fold change of Ctgf by RNA‐seq, AA + CWHM-12 ([2]; AA-injured, 100 mg/kg/day s.c. minipump, relative to uninjured, vehicle 6.4): 3.5 fold
- Fold change of Pdgfrb by RNA‐seq, AA + CWHM-12 [2, 5]: 3.0 fold
- Fold change of Pdgfrb by RNA‐seq, AA + CWHM-12 [2, 6]: 2.98 fold
- Fold change of Tgfb1 by RNA‐seq, AA + CWHM-12 ([2]; AA-injured, 100 mg/kg/day s.c. minipump, relative to uninjured, vehicle 7.4): 4.2 fold
- Fold change of Thbs2 by RNA‐seq, AA + CWHM-12 ([2]; AA-injured, 100 mg/kg/day s.c. minipump, relative to uninjured, vehicle 7.78): 4.36 fold
- Fold change of Gda by RNA‐seq, AA + CWHM-12 ([2]; AA-injured, 100 mg/kg/day s.c. minipump, relative to uninjured, vehicle 8.17): 5.15 fold
- Fold change of Tgfb3 by RNA‐seq, AA + CWHM-12 ([2]; AA-injured, 100 mg/kg/day s.c. minipump, relative to uninjured, vehicle 8.3): 4.9 fold
- Fold change of Thbs4 by RNA‐seq, AA + CWHM-12 ([2]; AA-injured, 100 mg/kg/day s.c. minipump, relative to uninjured, vehicle 8.72): 3.97 fold
- Fold change of Nes by RNA‐seq, AA + CWHM-12 ([2]; AA-injured, 100 mg/kg/day s.c. minipump, relative to uninjured, vehicle 8.77): 3.91 fold
- Fold change of Foxd1 by RNA‐seq, AA + CWHM-12 [2, 5]: 3.3 fold
- Fold change of Foxd1 by RNA‐seq, AA + CWHM-12 [2, 6]: 3.27 fold
- Fold change of Fn1 by RNA‐seq, AA + CWHM-12 ([2]; AA-injured, 100 mg/kg/day s.c. minipump, relative to uninjured, vehicle 12.6): 6.6 fold
- Fold change of Gli1 by RNA‐seq, AA + CWHM-12 [2, 5]: 9.2 fold
- Fold change of Gli1 by RNA‐seq, AA + CWHM-12 [2, 6]: 9.17 fold
- Fold change of Mmp2 by RNA‐seq, AA + CWHM-12 ([2]; AA-injured, 100 mg/kg/day s.c. minipump, relative to uninjured, vehicle 24.6): 9.9 fold
- Fold change of Gli3 by RNA‐seq, AA + CWHM-12 ([2]; AA-injured, 100 mg/kg/day s.c. minipump, relative to uninjured, vehicle 24.87): 15.02 fold
- Fold change of Col3a1 by RNA‐seq, AA + CWHM-12 ([2]; AA-injured, 100 mg/kg/day s.c. minipump, relative to uninjured, vehicle 28.0): 10.0 fold
- Fold change of Aldh1a2 by RNA‐seq, AA + CWHM-12 ([2]; AA-injured, 100 mg/kg/day s.c. minipump, relative to uninjured, vehicle 32.44): 21.06 fold
- Fold change of Crlf1 by RNA‐seq, AA + CWHM-12 [2, 5]: 3.9 fold
- Fold change of Crlf1 by RNA‐seq, AA + CWHM-12 [2, 6]: 3.88 fold
- Fold change of Col1a1 by RNA‐seq, AA + CWHM-12 ([2]; AA-injured, 100 mg/kg/day s.c. minipump, relative to uninjured, vehicle 42.1): 10.4 fold
- Fold change of Rgs16 by RNA‐seq, AA + CWHM-12 ([2]; AA-injured, 100 mg/kg/day s.c. minipump, relative to uninjured, vehicle 55.80): 26.19 fold
- Cdk1 expression level, fold higher, RNA-seq ([2]; AA-injured, 100 mg/kg/day s.c. minipump, vehicle 12-fold): 1.9 fold
- Ccnb1 expression level, fold higher, RNA-seq ([2]; AA-injured, 100 mg/kg/day s.c. minipump, vehicle 23-fold): 1.4 fold
- 0610005C13Rik RNA-seq normalized coverage, AA CWHM12.AVE ([2]; AA-injured, group average): 114105
- 0610007N19Rik RNA-seq normalized coverage, AA CWHM12.AVE ([2]; AA-injured, group average): 54308
- 0610007P14Rik RNA-seq normalized coverage, AA CWHM12.AVE ([2]; AA-injured, group average): 56128
- 0610008F07Rik RNA-seq normalized coverage, AA CWHM12.AVE ([2]; AA-injured, group average): 5309
- 0610009B14Rik RNA-seq normalized coverage, AA CWHM12.AVE ([2]; AA-injured, group average): 1314
- 0610005C13Rik RNA-seq normalized coverage, AA CWHM12 individual replicates ([2]; AA-injured, replicates 1-3): 95741 and 94900 and 151673
- 0610007N19Rik RNA-seq normalized coverage, AA CWHM12 individual replicates ([2]; AA-injured, replicates 1-3): 42985 and 46254 and 73685
- 0610007P14Rik RNA-seq normalized coverage, AA CWHM12 individual replicates ([2]; AA-injured, replicates 1-3): 42349 and 51087 and 74947
- 0610008F07Rik RNA-seq normalized coverage, AA CWHM12 individual replicates ([2]; AA-injured, replicates 1-3): 4229 and 2946 and 8751
- 0610009B14Rik RNA-seq normalized coverage, AA CWHM12 individual replicates ([2]; AA-injured, replicates 1-3): 1407 and 899 and 1635
- 0610005C13Rik AA CWHM12/AA Vehicle.RATIO ([2]; RNA-seq): 2.041
- 0610005C13Rik AA CWHM12/PBS Vehicle.RATIO ([2]; RNA-seq): 0.462
- 0610007N19Rik AA CWHM12/AA Vehicle.RATIO ([2]; RNA-seq): 1.380
- 0610007N19Rik AA CWHM12/PBS Vehicle.RATIO ([2]; RNA-seq): 1.337
- 0610007P14Rik AA CWHM12/AA Vehicle.RATIO ([2]; RNA-seq): 1.629
- 0610007P14Rik AA CWHM12/PBS Vehicle.RATIO ([2]; RNA-seq): 1.142
- 0610008F07Rik AA CWHM12/AA Vehicle.RATIO ([2]; RNA-seq): 4.723
- 0610008F07Rik AA CWHM12/PBS Vehicle.RATIO ([2]; RNA-seq): 0.373
- 0610009B14Rik AA CWHM12/AA Vehicle.RATIO ([2]; RNA-seq): 1.572
- 0610009B14Rik AA CWHM12/PBS Vehicle.RATIO ([2]; RNA-seq): 1.915
- IC50 [3]: 8 ± 3.9 nM
